The supplement of paper PMC10307832

Legend:
Assay in all cases: relative viability (nuclei count vs DMSO), 5 days (fraction); higher = more cells survive
XMD13-2 + Navitoclax = compound: C1CC1C(=O)NC2=NNC3=C2C=CC(=C3)C4=CC(=CC=C4)C(=O)NC5CC5 [XMD13-2] + CC1(C)CCC(c2ccc(Cl)cc2)=C(CN2CCN(c3ccc(C(=O)NS(=O)(=O)c4ccc(N[C@H](CCN5CCOCC5)CSc5ccccc5)c(S(=O)(=O)C(F)(F)F)c4)cc3)CC2)C1 [Navitoclax] (partner 0.5 µM)
Method in brief: (§1)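 Lung cancer cell lines in 1536-well plates got either a single drug or a fixed anchor-drug dose together with five library-drug doses (not always all listed) in √10 steps, by pin tool, on the day after seeding. Nuclei were counted after 5 days, and relative viability is the treated-to-vehicle ratio of nuclei counts. Values are medians of duplicate plates.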

XMD13-2 + Tozasertib = compound: C1CC1C(=O)NC2=NNC3=C2C=CC(=C3)C4=CC(=CC=C4)C(=O)NC5CC5 [XMD13-2] + Cc1cc(Nc2cc(N3CCN(C)CC3)nc(Sc3ccc(NC(=O)C4CC4)cc3)n2)n[nH]1 [Tozasertib] (partner 0.1 µM)
Method in brief: as §1

ALW-II-49-7 + OSI-027 = compound: Cc1ccc(C(=O)Nc2cccc(C(F)(F)F)c2)cc1Nc1cncc(C(N)=O)c1 [ALW-II-49-7] + COc1cccc2cc(-c3nc([C@H]4CC[C@H](C(=O)O)CC4)n4ncnc(N)c34)[nH]c12 [OSI-027] (partner 0.5 µM)
Method in brief: as §1

Dasatinib + AZD7762 = compound: Cc1nc(Nc2ncc(C(=O)Nc3c(C)cccc3Cl)s2)cc(N2CCN(CCO)CC2)n1 [Dasatinib] + NC(=O)Nc1cc(-c2cccc(F)c2)sc1C(=O)N[C@H]1CCCNC1 [AZD7762] (partner 0.2 µM)
Method in brief: as §1

Cell Line	relative viability (XMD13-2 + Navitoclax; first compound 0.05 µM)	relative viability (XMD13-2 + Navitoclax; first compound 0.1581 µM)	relative viability (XMD13-2 + Navitoclax; first compound 0.5 µM)	relative viability (XMD13-2 + Navitoclax; first compound 1.581 µM)	relative viability (XMD13-2 + Navitoclax; first compound 5 µM)	relative viability (XMD13-2 + Tozasertib; first compound 0.05 µM)	relative viability (XMD13-2 + Tozasertib; first compound 0.1581 µM)	relative viability (XMD13-2 + Tozasertib; first compound 0.5 µM)	relative viability (XMD13-2 + Tozasertib; first compound 1.581 µM)	relative viability (XMD13-2 + Tozasertib; first compound 5 µM)	relative viability (ALW-II-49-7 + OSI-027; first compound 0.08 µM)	relative viability (ALW-II-49-7 + OSI-027; first compound 0.253 µM)	relative viability (ALW-II-49-7 + OSI-027; first compound 0.8 µM)	relative viability (ALW-II-49-7 + OSI-027; first compound 2.53 µM)	relative viability (ALW-II-49-7 + OSI-027; first compound 8 µM)	relative viability (Dasatinib + AZD7762; first compound 0.005 µM)	relative viability (Dasatinib + AZD7762; first compound 0.01581 µM)	relative viability (Dasatinib + AZD7762; first compound 0.05 µM)	relative viability (Dasatinib + AZD7762; first compound 0.1581 µM)	relative viability (Dasatinib + AZD7762; first compound 0.5 µM)
NCI-H1355	0.971	0.941	0.904	0.899	0.89	0.64	0.631	0.638	0.548	0.589	0.372	0.404	0.363	0.364	0.353	0.851	0.711	0.694	0.571	0.535
NCI-H1395	1.25	1.16	1.23	1.11	1.1	0.716	0.735	0.796	0.787	0.807	0.593	0.69	0.736	0.677	0.62	0.401	0.39	0.358	0.356	0.356
NCI-H1437	1.12	1.09	1.09	1.05	1.09	0.427	0.438	0.411	0.395	0.404	0.835	0.744	0.751	0.877	0.75	1.22	1.05	1.04	0.893	0.221
NCI-H1651	1.28	1.04	1	1.2	0.947	0.721	0.807	0.64	0.759	0.672	0.668	0.629	0.543	0.687	0.572	0.475	0.384	0.382	0.374	0.333
NCI-H1666	0.886	1.03	0.881	0.905	0.92	0.662	0.602	0.595	0.623	0.518	0.905	0.869	0.778	1.02	0.816	0.852	0.685	0.762	0.622	0.411
NCI-H1734	1	0.883	0.881	0.8	0.741	0.258	0.245	0.271	0.228	0.205	0.602	0.652	0.55	0.556	0.534	0.524	0.482	0.482	0.406	0.386
NCI-H1755	1.03	0.985	1.07	1.01	0.986	0.664	0.575	0.498	0.543	0.494	0.789	0.728	0.7	0.67	0.532	0.424	0.33	0.296	0.25	0.215
NCI-H1793	0.48	0.394	0.485	0.426	0.509	0.432	–	0.334	0.379	0.322	0.257	0.301	0.24	0.235	0.248	0.425	0.369	0.247	0.229	0.273
NCI-H1915	0.801	0.781	0.806	0.835	0.853	0.48	0.488	0.48	0.412	0.335	0.662	0.653	0.573	0.49	0.381	0.693	0.616	0.509	0.21	0.212
NCI-H1944	1.08	1.05	1.08	1.11	1.17	0.275	0.243	0.229	0.239	0.221	0.393	0.413	0.397	0.353	0.303	0.41	0.388	0.294	0.21	0.187
NCI-H1975	1.17	1.28	1.01	1.02	1.18	0.967	0.739	0.735	0.631	0.72	0.555	0.785	0.72	0.553	0.486	0.714	0.538	0.578	0.442	0.317
NCI-H1993	0.911	0.834	0.884	0.845	0.673	0.627	0.529	0.565	0.615	0.545	0.486	0.521	0.535	0.601	0.521	0.777	0.639	0.755	0.444	0.485
NCI-H2085	1.25	1.14	1.16	1.18	1.1	0.824	0.806	0.905	0.821	0.754	0.778	0.748	0.625	0.806	0.738	0.992	0.688	0.436	0.39	0.2
NCI-H2087	1.01	1.13	1.02	0.968	0.959	0.264	0.239	0.268	0.223	0.207	0.578	0.537	0.525	0.547	0.51	1.34	1.19	1.49	0.857	0.556
NCI-H2126	0.909	0.867	0.831	0.813	0.845	0.953	0.879	0.81	0.861	0.985	0.664	0.64	0.65	0.607	0.653	0.971	0.847	0.98	0.885	0.511
